These results are taken from PubChem BioAssay (NCI).

Molecules are shown by their SMILES.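 Interpolation was linear, between the two tested concentrations surrounding the appropriate level; five concentrations were tested over 48 hours in 96-well plates. At the TGI there is no net growth.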 A value given as a limit tells only on which side of the number the result lay.

Common to all, as to test: NCI tumour cell line growth inhibition, 48 h
Experiment [1] relates to A549 NSCLC.
Experiment [2] deals with CAKI-1 renal.
For experiment [3], the system named is HT29 colon.
In experiment [4] the test system is IGROV1 ovarian.
The test system of experiment [5] is KM12 colon.
In experiment [6] the test system is MALME-3M melanoma.
Experiment [7] concerns MDA-MB-435.
Experiment [8] concerns MOLT-4 leukemia.
Experiment [9] relates to NCI-H522 lung.
The test system of experiment [10] is OVCAR-3 ovarian.
Experiment [11] has as its system OVCAR-8 ovarian.
Experiment [12] relates to SF-268 CNS.
The test system of experiment [13] is SK-MEL-28 melanoma.
For experiment [14], the system named is SK-OV-3 ovarian.
Experiment [15] relates to SNB-19 CNS.
The subject of experiment [16] is TK-10 renal.
The test system of experiment [17] is U251 CNS.
For experiment [18], the system named is UO-31 renal.
For experiment [19], the system named is BT-549 breast.

For the molecule `CC1(C)CC[C@]2(C(=O)O)CC[C@]3(C)C(=CC[C@@H]4[C@@]5(C)C[C@H](O)[C@H](O)[C@@](C)(CO)C5=CC[C@]43C)[C@@H]2C1`, the TGI in [1], in experiment [2], in [3], in [4], in experiment [5] and in experiment [6] was greater than 100 µM in each case. In addition, the TGI in [7], in [8], in experiment [9], in experiment [10], in [11] and in [12] was greater than 100 µM each time. For the same molecule, the TGI in experiment [13], in experiment [14], in [15], in experiment [16], in [17] and in experiment [18] was greater than 100 µM throughout.
Consider `O=C(O)C1(C(=O)O)CC1(C(=O)O)C(=O)O`, for which the TGI in experiment [1], in experiment [19], in experiment [2], in experiment [3], in experiment [4] and in experiment [5] was greater than 100 µM throughout. Besides, the TGI in [6], in [8], in experiment [9], in [11], in [12] and in experiment [13] was greater than 100 µM in each case. The TGI in experiment [14], in experiment [15], in experiment [16], in experiment [17] and in [18] was greater than 100 µM each time.
Regarding `COC1O[C@@H]2CCN3C(=O)[C@@H](OC(=O)c4ccc([N+](=O)[O-])cc4)[C@H]1C23` (stereo partly drawn), the TGI in experiment [1], in experiment [2], in [3], in experiment [4], in experiment [5] and in [7] was greater than 100 µM in each case. Also, the TGI in experiment [8], in experiment [9], in experiment [10], in experiment [11], in experiment [12] and in experiment [14] was greater than 100 µM in each case. The TGI in experiment [16], in experiment [17] and in experiment [18] was greater than 100 µM each time.
On to `CCCCCCCC/C=C\CCCCCCC(F)C(=O)O` (stereo not drawn), for which the TGI in experiment [1], in experiment [2], in experiment [3], in [4], in experiment [5] and in experiment [6] was greater than 12.5 µM in each case. For the same molecule, the TGI in experiment [7], in experiment [8], in [9], in experiment [10], in experiment [11] and in [12] was greater than 12.5 µM each time. In addition, the TGI in [13], in [14], in [15], in [16], in experiment [17] and in experiment [18] was greater than 12.5 µM each time.
On to `CSC(=NCCCCN=C(NS(=O)(=O)c1ccc(Cl)cc1)SC)NS(=O)(=O)c1ccc(Cl)cc1`, for which the TGI in experiment [2], in [3], in experiment [4], in experiment [6], in [7] and in experiment [10] was greater than 100 µM each time. Further, the TGI in experiment [11], in [12], in experiment [13], in [15], in experiment [16] and in experiment [17] was greater than 100 µM each time. Further, in experiment [18], the TGI is greater than 100 µM.
For the molecule `CCOP(=O)(OCC)C1CC(O)CN1OC(=O)C(C)(C)C` (stereo not drawn), the TGI in [1], in experiment [3], in experiment [4], in [5], in experiment [6] and in experiment [7] was greater than 100 µM throughout. In addition, the TGI in experiment [8], in experiment [10], in experiment [11], in experiment [12], in experiment [13] and in experiment [14] was greater than 100 µM throughout. For the same molecule, the TGI in [15], in experiment [16], in experiment [17] and in experiment [18] was greater than 100 µM throughout.
Turning to `OC(c1cccnc1)C(F)(F)c1nc2ccccc2o1` (stereo not drawn), the TGI in [19], in experiment [2], in experiment [3], in experiment [4], in experiment [5] and in [7] was greater than 100 µM throughout. The TGI in experiment [8], in experiment [11], in experiment [12], in experiment [13], in experiment [15] and in experiment [16] was greater than 100 µM in each case. Besides, the TGI in experiment [17] and in experiment [18] was greater than 100 µM throughout.
Turning to `CC(C)OCC(O)COc1ccc2ccc(=O)oc2c1` (stereo not drawn), the TGI in experiment [1], in experiment [2], in [3], in experiment [4], in [5] and in experiment [6] was greater than 100 µM each time. In addition, the TGI in experiment [7], in experiment [8], in experiment [9], in [10], in experiment [11] and in experiment [12] was greater than 100 µM in each case. The TGI in [13], in [14], in experiment [15], in [16], in experiment [17] and in experiment [18] was greater than 100 µM each time.
For `NCC#CCNCCCN1CC1`, the TGI in experiment [1], in experiment [2], in experiment [3], in experiment [4], in experiment [5] and in experiment [6] was greater than 100 µM each time. For the same molecule, the TGI in experiment [7], in [9], in [10], in [11], in experiment [12] and in experiment [13] was greater than 100 µM in each case. Also, the TGI in experiment [14], in experiment [15], in experiment [16] and in experiment [17] was greater than 100 µM each time.
For the molecule `CC(C)(C)[Si](C)(C)OCCCCC1CC2(S(=O)(=O)C3=CC=C=C=C3)ON1CC2S(=O)(=O)c1ccccc1` (stereo not drawn), the TGI in experiment [1], in experiment [19], in experiment [3], in [4], in experiment [5] and in experiment [7] was greater than 100 µM each time. Also, the TGI in experiment [8], in [10], in experiment [11], in [12], in experiment [13] and in experiment [14] was greater than 100 µM throughout. Also, the TGI in experiment [15], in experiment [16], in experiment [17] and in [18] was greater than 100 µM in each case.
`Nc1ncnc2c1ncn2C1C=CC(CP(=O)(O)O)C1` (stereo not drawn): the TGI in experiment [1], in experiment [2], in [3], in experiment [4], in experiment [5] and in [6] was greater than 100 µM throughout. Further, the TGI in [7], in experiment [8], in experiment [10], in [11], in experiment [12] and in experiment [13] was greater than 100 µM throughout. For the same molecule, the TGI in [14], in experiment [15], in [16], in experiment [17] and in experiment [18] was greater than 100 µM throughout.
On to `C[C@]12CCC(=O)C=C1CC[C@@H]1[C@@H]2CC[C@]2(C)C(=O)[C@H](n3ccnc3)C[C@@H]12`, for which the TGI in experiment [1], in [2], in experiment [3], in [4], in [5] and in experiment [6] was greater than 100 µM throughout. Also, the TGI in experiment [7], in experiment [8], in [9], in [11], in experiment [12] and in experiment [13] was greater than 100 µM in each case. The TGI in experiment [15], in [16], in experiment [17] and in [18] was greater than 100 µM in each case.
For `Cc1ccc2c(=O)cc(-c3cccc4ccccc34)[nH]c2n1`, the TGI in [1] is greater than 48.1 µM; in experiment [19], greater than 94.6 µM; in experiment [2], greater than 100 µM; in experiment [3], 0.0658 µM; in experiment [4], greater than 100 µM; in [5], 1.98 µM. For the same molecule, the TGI is 0.0495 µM in experiment [6]; greater than 100 µM in [8]; 0.305 µM in [11]; greater than 32.4 µM in experiment [12]; greater than 100 µM in [13]; 2.64 µM in [14]. Besides, the TGI in experiment [15] was greater than 100 µM; in experiment [17], 1.64 µM; in [18], greater than 55.4 µM.
Regarding `O=C1c2ccccc2-c2nc3ccc(O)cc3n21`, the TGI in experiment [1], in [19], in experiment [2], in experiment [3], in [4] and in [5] was greater than 100 µM in each case. Also, the TGI in experiment [6], in [8], in [9], in [10], in experiment [11] and in [12] was greater than 100 µM in each case. Also, the TGI in [13], in [14], in experiment [15], in [16], in experiment [17] and in experiment [18] was greater than 100 µM each time.
`O=C(C#CP(=O)(O)c1ccccc1)c1ccccc1`: the TGI in experiment [1], in [2], in experiment [3], in experiment [4], in experiment [5] and in experiment [6] was greater than 100 µM throughout. For the same molecule, the TGI in experiment [7], in experiment [9], in experiment [10], in experiment [11], in [12] and in experiment [13] was greater than 100 µM in each case. The TGI in experiment [14] was greater than 100 µM; in experiment [15], greater than 100 µM; in experiment [16], greater than 100 µM; in experiment [17], greater than 100 µM; in [18] it was 4.14 µM.
With `COC(=O)N/N=C(/CCN1CCCC1)CC(c1ccccc1)c1c(O)c2ccccc2oc1=O` (stereo not drawn), the TGI in experiment [1], in experiment [2], in experiment [3], in experiment [4], in [5] and in experiment [6] was greater than 100 µM each time. Besides, the TGI in [8], in [9], in [10], in experiment [11], in experiment [12] and in experiment [13] was greater than 100 µM throughout. Further, the TGI in experiment [14], in experiment [15], in experiment [16], in experiment [17] and in experiment [18] was greater than 100 µM throughout.
With `COc1ccc(NC(=O)C(=O)C2CNC(=O)NC2=O)c(OC)c1` (stereo not drawn), the TGI in experiment [1], in experiment [2], in experiment [3], in [4], in experiment [5] and in experiment [6] was greater than 100 µM throughout. Moreover, the TGI in experiment [8], in experiment [9], in [10], in experiment [11], in experiment [12] and in experiment [13] was greater than 100 µM each time. The TGI in experiment [14], in [15], in experiment [16], in [17] and in experiment [18] was greater than 100 µM in each case.
